Test results published in patent US7723301B2, “Pharmaceutical compositions comprising an anti-teratogenic compound and applications of the same” (The Board of Trustees of the University of Arkansas, priority 2007, dated 2010).

Assays:
β-catenin [1] = experiment: Sub-cellular localization of β-catenin in HEFs; type: cell-based, human; conditions: in the presence of Wnt3a; about 70% with Wnt3a alone
Procedure: (§1) CEFs or HEFs attached on cover slips were incubated with Wnt3a-conditioned medium including thalidomide or solvent or with control medium for five hours. β-catenin was detected by using a mouse anti-β-catenin antibody (1:500, BD Transduction Laboratories), an anti-mouse Cy3-coupled secondary antibody (Dianova) and fluorescence microscopy. Afterwards, a DAPI staining was performed as a control. Quantification was done by counting the nuclei with a clear fluorescent signal in relation to the number of DAPI-stained nuclei.

Wnt/β-catenin signaling = experiment: TOPflash luciferase reporter assay in CEFs; type: cell-based, chicken; conditions: Wnt3a-conditioned medium, 24 hours
Procedure: Plasmids with wild type (TOPflash) or mutated (FOPflash) LEF/TCF binding sites (5) upstream of a luciferase reporter gene were transiently transfected into CEFs using Lipofectamine (Invitrogen). Following transfection for 24 hours, the cells were exposed to Wnt3a-conditioned medium or to control medium (6) with or without thalidomide or recombinant human DKK1 (150 ng/ml, R&D Biosystems) for 24 hours prior to luciferase assay. Values were normalized for transfection efficiency by co-transfection with a pSV-β-galactosidase vector and for the number of living cells. Luciferase activity was measured using the Dual-Light System (Applied Biosystems).

chicken embryos = experiment: Inhibitors counteracting thalidomide-induced limb truncations and microphthalmia in chicken embryos; type: in vivo
Procedure: Fertilized eggs were purchased from Deindl GmbH, Rietberg-Varensell. They were incubated at 38° C. in a humidified incubator, windowed after one day and staged according to Hamburger and Hamilton (HH stage). Racemic thalidomide (Celgene), thalidomide enantiomers or phthalimide (Sigma) were dissolved in DMSO at 5 mg/ml and further diluted in PBS. Embryos were exposed to drugs by dropping 15 μg-3 mg thalidomide or phthalimide per kg egg weight (about 1-200 μg per embryo) in 50 μl DMSO/PBS as a single dose at HH stages 0-13 onto the embryo. Thalidomide (50 μg) or phthalimide (50 μg) in 10 μl DMSO was injected into the extra-embryonic blood vessels of HH 19 stage embryos. LiCl (99% pure, Sigma) was dissolved in sterile PBS. LiCl (0.1, 0.6 or 3.2 mg) was applied at HH stages 17-19 by dropping 500 μl of a 5 mM, 28 mM or 151 mM LiCl solution onto the embryo. Recombinant Noggin, Dkk1 specific goat IgG (R&D Systems) or serum of non-immunized goats (Sigma) was dissolved in 0.1% BSA/0.01% Fast Green/PBS. Noggin (10 or 100 ng), Dkk1 specific goat IgG (5 or 50 ng) or serum of non-immunized goats (50 ng) was applied to a single embryo at HH stages 17-19 by injecting a 10 μl solution through the extra-embryonic membranes.
The morphology of the limbs was studied in specimens fixed in 5% trichloroacetic acid and stained for cartilage with alcian green as described (3).

[2] = tested on: Dkk1 and Bmp expression in limb buds; experiment: sqRT-PCR and whole mount in situ hybridization of Dkk1 and Bmp expression in limb buds; type: in vivo, chicken
Procedure: (§2) RNA isolation, semi-quantitative RT-PCRs and whole mount in situ hybridizations were performed according to standard protocols that are well known within the art. RNA was isolated using TRIZOL (Gibco BRL) followed by DNAseI digestion. First strand synthesis was carried out with the Expand RT System (Roche) according to the manufacturer's instructions. PCR amplification was carried out primers and conditions within the knowledge of a person having skill in the relevant art. Quantifications were performed using NIH Image 1.62.

[3] = tested on: limb buds of HH stages 23/24 chicken embryos; experiment: Whole mount TUNEL staining of limb buds; type: in vivo
Procedure: TUNEL staining was performed as described (7).

β-catenin [4] = experiment: Sub-cellular localization of β-catenin in CEFs; type: cell-based, chicken; conditions: in the presence of Wnt3a, data not shown
Procedure: as §1

[5] = tested on: primary limb bud cells (PLBCs); experiment: Cell death by trypan blue staining in PLBCs; type: cell-based, chicken
Procedure: (§3) Primary limb bud cells (PLBCs) were isolated from 60 pooled wing and hindlimb buds of HH stages 23/24 embryos. Fibroblasts were gained from HH stage 34 chicken embryos or from 13.5 d.p.c. mouse embryos. Human embryonic fibroblasts were provided by Matthias Maass (2). Before adding reagents, all cell types were cultured for 16 hours in D-MEM (Gibco) plus 10% fetal calf serum (FCS) and 2% chicken serum. Treatment with thalidomide, phthalimide, recombinant human (rh) BMP4 (300 ng/ml; R&D Systems), juglone (5 μM; Sigma), recombinant mouse Noggin (30, 300, 1000 ng/ml in FIG. 4B; 300 ng/ml in FIGS. 4C and 6A), anti-human-DKK1 antibody (35, 350 and 1000 ng/ml in FIG. 4B; 350 ng/ml in FIGS. 4C and 6A), LiCl (3, 30, 60 mM in FIG. 4B; 30 mM in FIGS. 4C, 6A and 6C) and/or (2Z,3E)-6-Bromoindirubin-3-oxime (BIO, Gsk3-Inhibitor IX; 50, 500, 1000 nM in FIG. 4B; 500 nM in FIG. 6A; 50 and 500 nM in FIG. 6C; Calbiochem) were performed in Optimem1 (Invitrogen) plus 1% FCS. Unless otherwise noted, all treatments with thalidomide and rh-BMP4 and associated controls were done for six hours. Inhibitors were applied once at the beginning of incubation with the exception of LiCl that was added 150 minutes before harvesting the cells for further analyses. Pre-treatment with phenyl-N-t-butylnitrone (PBN; 2 mM; Sigma) was performed for one hour. Incubations with juglone were performed for two hours, if applicable, after a pre-treatment with PBN, Noggin, anti-Dkk1 antibody, LiCl or Gsk3-Inhibitor IX for one hour.
(§4) Cell death in PLBCs, CEFs, MEFs and HEFs was detected by staining with trypan blue (0.1% (w/v) in PBS; Sigma) for 90 seconds. Cells were counted in a counting chamber to determine the ratio of dead to live cells.

[6] = tested on: Bmp4 and Dkk1 expression in MEFs; experiment: sqRT-PCR of Bmp4 and Dkk1 expression in MEFs; type: cell-based, mouse; conditions: 10 μg/ml, six hours
Procedure: as §3, with “Inhibitors were applied once at the beginning of incubation with the exception of LiCl that was added 150 minutes before harvesting the cells for further analyses. Pre-treatment with phenyl-N-t-butylnitrone (PBN; 2 mM; Sigma) was performed for one hour. Incubations with juglone were performed for two hours, if applicable, after a pre-treatment with PBN, Noggin, anti-Dkk1 antibody, LiCl or Gsk3-Inhibitor IX for one hour.” left out
RNA isolation, semi-quantitative RT-PCRs and whole mount in situ hybridizations were performed according to standard protocols that are well known within the art. […] Quantifications were performed using NIH Image 1.62.

[7] = tested on: primary embryonic fibroblasts of mice (MEFs); experiment: Cell death by trypan blue staining in MEFs; type: cell-based, mouse
Procedure: as §3, with “Inhibitors were applied once at the beginning of incubation with the exception of LiCl that was added 150 minutes before harvesting the cells for further analyses. Pre-treatment with phenyl-N-t-butylnitrone (PBN; 2 mM; Sigma) was performed for one hour. Incubations with juglone were performed for two hours, if applicable, after a pre-treatment with PBN, Noggin, anti-Dkk1 antibody, LiCl or Gsk3-Inhibitor IX for one hour.” left out
as §4

[8] = tested on: Bmp4 and Dkk1 expression in PLBCs; experiment: sqRT-PCR of Bmp4 and Dkk1 expression in PLBCs; type: cell-based, chicken; conditions: 10 μg/ml, six hours
Procedure: as §3, §2

[9] = tested on: human embryonic fibroblasts (HEFs); experiment: Cell death by trypan blue staining in HEFs; type: cell-based
Procedure: as §3, §4

## O=C1CCC(N2C(=O)c3ccccc3C2=O)C(=O)N1 (racemic) [thalidomide, 2-(2,6-dioxo-3-piperidyl)isoindole-1,3-dione]
β-catenin [1]
  HEFs positive for nuclear β-catenin: 10%
Wnt/β-catenin signaling
  effect on Wnt3a-induced TOPflash activity: clearly counteracted
Chicken embryos; control of the anti-Dkk1 antibody experiment (FIG. 7B)
  embryos with limb truncations, thalidomide-treated control embryos: 15%
Chicken embryos; in vivo
  embryos with microphthalmia, thalidomide-treated control embryos: 23%
Chicken embryos; survived to day seven (FIG. 7A)
  embryos with limb truncations, thalidomide treatment: 19%
[2]; HH stages 23/24 embryos
  expression level of Bmp2 in limb buds (sqRT-PCR): not significantly affected
  expression of Bmp4, Bmp5 and Bmp7 in limb buds (sqRT-PCR): clearly up-regulated
[2]; HH stages 23/24 embryos, in comparison to controls
  Dkk1 expression in limb buds (sqRT-PCR): dramatically enhanced
[2]; HH stages 23/24 embryos, AER, ANZ and PNZ
  limb buds with Bmp4 expression dramatically up-regulated (whole mount in situ hybridization): 20 of 36
[2]; HH stages 23/24 embryos, AER, underlying mesenchyme and ANZ
  limb buds with Dkk1 expression clearly enhanced (whole mount in situ hybridization): 19 of 64
[2]; in vivo
  limb buds with enhanced Bmp expression and PCD: 55%
  limb buds with increased Dkk1 expression: 30%
[3]; HH stages 23/24 embryos
  limb buds with enlarged ANZ (whole mount TUNEL staining): 22 of 40
[3]; chicken, in vivo
  individual limb buds with enhanced PCD (TUNEL): 53%
β-catenin [4]
  number of CEFs positive for nuclear β-catenin: dramatic reduction
[5]; 38.7 μM (10 μg/ml), six to eight hours
  maximum of cell death in PLBCs: about 6 -fold above control
[5]; Gallus gallus, 6 h, treated for six hours, read-out: EC50 for induction of PCD in PLBCs
  EC50: 5 µM
[6]
  expression of Bmp4 and Dkk1 in MEFs: not in MEFs
[7]; 38.7 μM (10 μg/ml), six hours
  induction of cell death in MEFs: did not induce cell death
[7]; up to 100 μg/ml, data not shown
  induction of cell death in MEFs with longer incubation times and concentrations up to 100 μg/ml: did not significantly induce cell death above controls
[8]
  expression of Bmp4 and Dkk1 in PLBCs: induced the expression
[9]
  potential to induce PCD in HEFs: very similar to that in chicken embryonic cells
[9]; Homo sapiens, Fibroblast, 6 h, treated for six hours, read-out: EC50 for induction of apoptosis (PCD) in HEFs
  EC50: 8.9 µM
